The values below come from PMC3729039 (Molecular cancer therapeutics, 2013).

The subject of data set [1] is PSA, FKBP5 and TMPRSS2 transcripts. Description: qRT-PCR of androgen-regulated genes in VCaP cells. As to conditions: 10 µM, 1 nM R1881, 16 hours. The class given is cell-based.
A further data set deals with VCaP cells. Description: Viability assay, VCaP. The class given is cell-based. As to conditions: VCaP (wild-type AR), treated for 5 days.
For the next data set, the system named is LNCaP95 cells. Briefly: LNCaP95 cell growth/viability.
In data set [2] the target is T1, full-length human progesterone receptor-beta (PRβ) (Homo sapiens, UniProt P06401).
T1 sequence (P06401 1-933): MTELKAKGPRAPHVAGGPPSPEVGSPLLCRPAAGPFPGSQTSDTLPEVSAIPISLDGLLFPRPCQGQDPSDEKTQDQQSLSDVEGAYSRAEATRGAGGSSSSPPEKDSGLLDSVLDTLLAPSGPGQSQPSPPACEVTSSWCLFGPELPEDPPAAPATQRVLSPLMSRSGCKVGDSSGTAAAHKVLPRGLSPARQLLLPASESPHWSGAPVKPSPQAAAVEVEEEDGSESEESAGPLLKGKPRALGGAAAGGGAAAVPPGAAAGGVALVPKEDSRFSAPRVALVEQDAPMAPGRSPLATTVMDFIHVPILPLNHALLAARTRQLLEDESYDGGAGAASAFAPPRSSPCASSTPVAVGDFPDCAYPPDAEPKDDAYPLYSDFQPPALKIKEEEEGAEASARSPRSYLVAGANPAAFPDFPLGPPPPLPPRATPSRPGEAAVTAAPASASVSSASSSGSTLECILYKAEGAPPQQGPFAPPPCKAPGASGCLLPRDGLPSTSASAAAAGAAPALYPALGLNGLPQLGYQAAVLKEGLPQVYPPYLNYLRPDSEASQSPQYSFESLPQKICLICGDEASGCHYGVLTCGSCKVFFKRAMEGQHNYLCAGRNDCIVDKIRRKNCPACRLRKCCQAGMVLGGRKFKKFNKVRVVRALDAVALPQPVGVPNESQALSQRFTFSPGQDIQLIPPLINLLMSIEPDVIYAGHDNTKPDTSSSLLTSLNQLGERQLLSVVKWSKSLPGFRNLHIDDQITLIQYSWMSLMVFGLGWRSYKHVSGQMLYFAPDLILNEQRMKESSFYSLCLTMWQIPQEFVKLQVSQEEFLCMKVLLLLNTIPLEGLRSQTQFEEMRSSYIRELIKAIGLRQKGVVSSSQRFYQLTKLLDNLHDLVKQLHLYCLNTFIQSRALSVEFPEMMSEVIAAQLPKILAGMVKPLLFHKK
Description: PR transcriptional activity, PRE luciferase reporter in LNCaP cells. The class given is cell-based. Particulars: 10 µM, 10 nM 4-pregnene-3,20 dione, 48 hours.

The target of data set [3] is T2, full-length human glucocorticoid receptor (GR) (Homo sapiens, UniProt P04150).
T2 sequence (P04150 1-777): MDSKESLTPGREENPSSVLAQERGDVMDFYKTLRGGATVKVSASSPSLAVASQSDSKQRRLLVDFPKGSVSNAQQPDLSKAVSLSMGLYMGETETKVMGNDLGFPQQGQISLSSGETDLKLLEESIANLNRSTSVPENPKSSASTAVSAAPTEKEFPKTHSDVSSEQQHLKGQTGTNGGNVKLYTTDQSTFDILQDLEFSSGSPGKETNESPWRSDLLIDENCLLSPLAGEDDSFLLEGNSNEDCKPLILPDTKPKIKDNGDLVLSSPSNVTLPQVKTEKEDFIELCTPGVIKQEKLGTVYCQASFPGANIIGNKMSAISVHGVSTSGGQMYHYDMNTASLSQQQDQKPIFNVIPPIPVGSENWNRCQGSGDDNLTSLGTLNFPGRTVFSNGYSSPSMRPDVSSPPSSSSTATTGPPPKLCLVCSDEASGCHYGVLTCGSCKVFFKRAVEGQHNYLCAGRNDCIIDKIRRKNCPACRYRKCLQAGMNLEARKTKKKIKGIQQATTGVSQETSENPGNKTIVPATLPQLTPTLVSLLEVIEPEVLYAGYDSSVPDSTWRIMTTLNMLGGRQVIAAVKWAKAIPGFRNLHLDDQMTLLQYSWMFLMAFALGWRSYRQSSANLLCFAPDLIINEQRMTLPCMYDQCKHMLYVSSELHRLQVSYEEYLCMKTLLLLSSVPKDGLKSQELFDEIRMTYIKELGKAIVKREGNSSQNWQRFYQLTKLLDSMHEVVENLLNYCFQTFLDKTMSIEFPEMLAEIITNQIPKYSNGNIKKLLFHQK
Description: GR transcriptional activity, GRE reporter in LNCaP cells. Particulars: 10 µM, 10 nM dexamethasone, 48 hours.

Another data set has as its system PC3 cells. Description: Viability assay, PC3. Particulars: PC3, treated for 3 days. The data set is classed as cell-based, human.
The subject of data set [4] is seminal vesicles (androgen-dependent tissue). Briefly: In vivo effects on androgen-dependent tissue in intact male mice. Further details: species or system NOD-SCID mice. Particulars: mature male mice, 10 mg/kg oral gavage, 13 daily doses.
The subject of a further data set is LNCaP cells. Briefly: Viability assay, LNCaP. The data set is classed as cell-based, human. As to conditions: treated for 4 days.
Another data set addresses T3, recombinant human PR LBD (Homo sapiens, UniProt P06401).
T3 sequence (P06401 679-913 limits assumed): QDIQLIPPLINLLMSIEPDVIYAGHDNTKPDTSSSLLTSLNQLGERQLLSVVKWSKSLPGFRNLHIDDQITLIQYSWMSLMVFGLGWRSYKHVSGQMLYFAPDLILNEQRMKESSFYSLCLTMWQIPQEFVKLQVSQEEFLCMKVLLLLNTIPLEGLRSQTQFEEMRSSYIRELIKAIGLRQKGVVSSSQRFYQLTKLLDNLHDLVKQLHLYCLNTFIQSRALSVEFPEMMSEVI
Description: In vitro ligand competitor assay. The class given is binding.

Data set [5] deals with LNCaP human prostate cancer cells. Briefly: Androgen-dependent proliferation of LNCaP cells. The data set is classed as cell-based. As to conditions: 0.1 nM R1881.
Data set [6] concerns the target recombinant human full-length ERα (Homo sapiens, UniProt P03372). Description: In vitro ligand competitor assay. The class given is binding. As to conditions: fluorescence polarization competitor assay.
Data set [7] deals with PC3 human prostate cancer cells. Briefly: Proliferation of PC3 cells. The data set is classed as cell-based. Particulars: PC3, 0.1 nM R1881.

pEC50: −log10 of the molar value.

recombinant human full-length ERα, sequence (P03372 whole entry): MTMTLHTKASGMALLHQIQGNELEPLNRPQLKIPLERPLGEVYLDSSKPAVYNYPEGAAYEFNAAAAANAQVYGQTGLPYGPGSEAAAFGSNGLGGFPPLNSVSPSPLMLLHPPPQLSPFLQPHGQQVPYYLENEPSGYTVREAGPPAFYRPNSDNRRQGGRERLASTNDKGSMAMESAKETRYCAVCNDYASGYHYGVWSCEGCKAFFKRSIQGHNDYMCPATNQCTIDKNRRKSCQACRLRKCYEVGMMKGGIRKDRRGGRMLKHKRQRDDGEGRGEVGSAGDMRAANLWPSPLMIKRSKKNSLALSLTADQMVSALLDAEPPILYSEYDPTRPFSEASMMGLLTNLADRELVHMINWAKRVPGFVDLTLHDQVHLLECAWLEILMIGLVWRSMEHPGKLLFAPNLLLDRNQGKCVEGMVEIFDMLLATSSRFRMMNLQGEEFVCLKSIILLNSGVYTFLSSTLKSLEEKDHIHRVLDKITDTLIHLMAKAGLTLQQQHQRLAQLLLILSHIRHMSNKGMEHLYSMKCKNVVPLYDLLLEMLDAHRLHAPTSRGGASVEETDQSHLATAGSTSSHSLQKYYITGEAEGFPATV

For the molecule `CC(O)(CS(=O)(=O)c1ccc(F)cc1)C(=O)Nc1ccc(C#N)c(C(F)(F)F)c1` (stereo not drawn) [BIC, bicalutamide], the “effect on androgen-induced levels of PSA transcript” value in data set [1] was “neither BIC or any of the diterpenoids significantly reduced these levels”. The “effect on androgen-induced levels of transcript for FKBP5 and TMPRSS2” value in data set [1] is listed as “significantly blocked”. Further, the “cytotoxicity (viability assay)” value with VCaP cells, with PC3 cells and in the data set on LNCaP cells was “no indication of cytotoxicity” throughout. Moreover, the “effect on cell growth/viability” value with LNCaP95 cells is reported as “not altered”. In data set [2], the “effect on PR transcriptional activity induced by Preg” value is listed as “inhibited”. For the same molecule, the “effect on transcriptional activity of GR induced by dexamethasone” value in [3] is “had no effect”. For the same molecule, the testes weight entry in data set [4] is “no effect on the weight of testis”. The pEC50 on recombinant human PR LBD was 5.29.
For `C[C@]1(O)CC[C@H]2[C@@H]3CCC4=CC(=O)CCC4=C3C=C[C@@]21C` [R1881], the entries for the “effect of androgen on proliferation” value in [5] and in [7] were “led to increased proliferation” and “did not alter their proliferation”, respectively. Also, the “effect on cell growth/viability” value in the data set with LNCaP95 cells was “not altered”. Also, the “competition with fluoromone for ERα” value in data set [6] is “none of the AR ligands (R1881, BIC and the diterpenoids) were efficient in competing”.
Turning to `CC#C[C@]1(O)CC[C@H]2[C@@H]3CCC4=CC(=O)CCC4=C3[C@@H](c3ccc(N(C)C)cc3)C[C@@]21C` [RU486], the “effect on PR transcriptional activity induced by Preg” value in [2] was “inhibited”.
